Ends that are not written are not given here.
Key:
[1] = tested on: MDA-MB-468 cells; test: soft agar colony formation (anchorage-independent growth) of MDA-MB-468 cells; assay type: cell-based, human; conditions: 10 nM, positive control
[2] = tested on: EGFR; test: EGFR binding competition assay with iodinated EGF in MDA-MB-468 cells; design: species or system human; conditions: 1 nM iodinated EGF, peptide 0.6, 6, 60 μM
Procedure: FIG. 6A: EGFR binding competition assays were performed in MDA-MB-468 cells. In brief, 150,000 cells/well were plated in 24 well plate. The binding assays were performed as described by Lonardo, et al., Mol. Cell. Biol, 2:992 (1990). In brief, 1 nM iodinated EGF (Amersham) was incubated with increasing concentrations of RL2 or RL2-K (0.6, 6, 60 μM, respectively). Increasing concentrations of unlabelled EGF were used as control, as shown in the insert. Each group was assayed in triplicate. Values are from three experiments and expressed as the mean percent of control cases.
(§1) To explore whether the RL2 peptide could specifically represent either a p185^erbB-2 or EGFR-extracellular binding site, we tested the aforementioned peptides in p185^erbB-2 or EGFR binding competition assays. Since iodinated gp30 was not available, p185^erbB-2 and EGFR competition assays were performed using iodinated monoclonal antibody 4D5 and iodinated EGF respectively. p185^erbB-2 monoclonal antibodies 4D5 and 7C2 were provided by Genentech, Inc., South San Francisco, Calif.
Among the peptides tested, only RL2 displaced in a dose-dependent manner (B/T 50: 8 μM) the binding of iodinated 4D5 to SK-Br-3 (FIG. 2).

[3] = tested on: SK-Br-3 cells; test: soft agar colony formation of SK-Br-3 cells with gp30 or p75; assay type: cell-based, human; conditions: 5×10^-12 M gp30 or 2×10^-12 M p75; 60 μM RL2, 127 nM ECD
Procedure: (§2) MDA-MB-453 (A), or SK-Br-3 cells (B) were plated in 35 mm tissue culture dishes (Costar). A bottom layer of 1 ml IMEM containing 0.6% Bacto-agar (Difco), 2 mM glutamine, and 10% FCS was prepared. Top layers contained 2×10^4 cells and samples in 0.4% Bacto-agar, 10% FCS IMEM. Samples were sterilized prior to plating by filtration using 0.22 μM Millex CU millipore filter. The legend of peptide symbols in A is identical to the one in FIG. 2. The following concentrations were used in B: 5×10^-12 M gp30, 2×10^-12 M p75, 60 μM RL2, and 127 nM p185^erbB-2 extracellular domain (ECD) as positive control. Experiments were carried out in FCS that had been tested for optimal cloning efficiency. Cells were incubated 7-9 days in humidified 5% CO2 atmosphere at 37° C. Colonies larger than 60-μm were counted using a Baush and Lomb Stem Cell Colony Counter (Artex Systems Corp.). Each group was assayed in triplicate. Experiments were performed three times.
To illustrate RL2 antiproliferative effects as a blocking action on the p185^erbB-2 ligand-mediated effects, we tested this peptide and the ECD of p185^erbB-2 on the anchorage-independent growth of SK-Br-3 cells in the presence of stimulating concentrations of either gp30 or p75 proteins, the latter known to interact exclusively with p185^erbB-2 (Lupu, et al., Proc. Natl. Acad. Sci. USA, 89:2287-91 (1992)). […]

[4] = tested on: MDA-MB-453 cells; test: soft agar colony formation (anchorage-independent growth) of MDA-MB-453 cells; assay type: cell-based, human; conditions: for Number of Colonies (± SD): MDA-MB 453 cells, untreated 942 ± 120
Procedure: as §2
*Cells were treated as indicated. The monoclonal antibody 4D5 (kindly
provided by Genentech, CA) and the RL2 peptide were used as positive
controls. Soft agar cloning assays were carried out as previously
described (Lupu, et al., Proc. Natl. Acad. Sci. USA, 87:2287-91, 1992).
Colonies larger than 69 μM were counted using a Baush & Lomb Stem Cell
Colony Counter (Artex Systems Corp.). Each group was assayed in
triplicate. Experiments were performed three times with similar results.

[5] = tested on: p185^erbB-2; test: in vivo phosphorylation assay and phosphoaminoacid analysis in MDA-MB-453 cells; assay type: cell-based, human
Procedure: MDA-MB-453 cells were grown in 35 mm dishes (Costar) to 70% confluence in 5% FCS IMEM. Cells were washed twice with PO4 free DMEM (Gibco), and then incubated for 3 hours at 37° C. with [^32 P]-orthophosphate (Amersham; 1.0 mCi/ml in each dish). Cells were then treated for 10 minutes at 37° C. with samples: control, 60 μM RL2, 50×10^-12 M gp30, or 50×10^-12 M gp30 plus 60 μM RL2. All samples were preincubated 30 minutes at 37° C. Cells were washed twice with PBS, and lysed at 4° C. for 10 minutes with a lysis buffer containing 1% Triton X-100, and kinase, protease and phosphatase inhibitors as described (Frackelton, et al., J. Biol. Chem., 259:7909 (1984)). After centrifugation at 10,000× g for 15 minutes at 4° C., tyrosinephosphorylated proteins were isolated from supernatants by microbath affinity chromatography on the phosphotyrosine monoclonal antibody 1G2 (provided by Dr. A. R. Frakelton) as previously described (Frackelton, et al., J. Biol Chem., 259:7909 (1984); and Beitz, et al., Proc. Natl. Acad. Sci. USA, 88:2021 (1991)), eluted with 1 mM phenylphosphate in PBS pH 7.4, and purified further by immunoprecipitation with p185^erbB-2 monoclonal antibody Ab-3 (Oncogene Science) adsorbed on protein A-Sepharose. […]

[6] = tested on: p185^erbB-2; test: p185^erbB-2 binding competition assay with iodinated 4D5 on SK-Br-3 cells; design: species or system human; conditions: 1 nM iodinated 4D5, 3 hours at 4° C., read-out: B/T 50, displacement of the binding of iodinated 4D5 to SK-Br-3
Procedure: SK-Br-3 cells were placed in 48-well plates (Costar) in 5% fetal calf serum (FCS), IMEM (Biofluids).Cells were washed and incubated for 30 minutes at 37° C. with binding buffer [1 mg/ml BSA, 10 mM Hepes, 20 mM glutamine, DMEM-F12 pH 7.4]. Binding studies were performed for 3 hours at 4° C. On SK-Br-3 cells, 1 nM iodinated 4D5 was incubated with various concentrations of P1 (.largecircle.), P2 (.circle-solid.), P3 (Δ), P4 (.tangle-solidup.), RL1 (.quadrature.), and RL2 (.box-solid.) unlabeled peptides (A), or with unlabeled 4D5 (B). After incubation, cells were washed three times with binding buffer, and solubilized with 1% SDS. Unspecific binding of iodinated 4D5 was determined with an excess (100 nM) of unlabeled 4D5. Each group was assayed in triplicate. Experiments were performed three times with similar results.
as §1, with “Calif. […]” for “Calif.”

[7] = tested on: EGFR; test: in vitro tyrosine phosphorylation assay in MDA-MB-468 cells; assay type: cell-based, human
Procedure: (§3) Cells were grown in 24-well plates (Costar) to 70% confluence in 5% FCS IMEM and serum-starved 24 hours prior to assays. Cells were then treated for 20 minutes at 37° C. with RL1 or RL2 with and without gp30 (at concentrations given below), as indicated on Figure panels, washed once with serum-free IMEM, and lysed at 4° C. for 10 minutes with a lysis buffer containing SDS (Emprotech). Total cellular proteins were subjected to 4-20% SDS-PAGE, and blotted onto Hybond-ECL membranes (Amersham). Membranes were blocked with tris-buffered saline [5% BSA, 0.5% Tween 20] and probed with 1 μg/ml phosphotyrosine monoclonal antibody (UBI) in tris-buffered saline [0.5% BSA, 0.5% Tween 20]. Immune complexes were detected using the ECL-western blotting kit (Amersham) as indicated by the manufacturer. Densitometric analyses were performed using a SAMBA 4000 system (Dynatech Laboratories). The values obtained were corrected for background and expressed as control percentages. Differences were considered significant when effects more than 10% versus controls occurred.
Upper panels correspond to MDA-MB-453 cells. […] Lower panels correspond to MDA-MB-468 cells. […] Lanes 1 to 4 correspond to increasing concentrations of RL2 (left panels), or RL1 (right panels) peptides. 1: 0.06 μM; 2: 0.6 μM; 3: 6 μM; 4: 60 μM. Experiments were repeated four times with similar results.
FIG. 6B: EGFR Tyrosine Phosphorylation assays were performed using MDA-MB-468 cells, as described for FIG. 3. […]
(§4) To further characterize RL2 blocking effects, we analyzed the homologous peptides for their ability to prevent the tyrosine phosphorylation induced by gp30 either in p185^erbB-2 or EGFR, or both of them. […] (Densitometric analyses of autoradiograms were performed using a SAMBA 4000 system (Dynatech Laboratories). The values obtained were corrected for background and expressed as control percentages. Differences were considered significant when effects more than 10% versus controls occurred.)

[8] = tested on: p185^erbB-2; test: in vitro tyrosine phosphorylation assay in MDA-MB-453 cells; assay type: cell-based, human; conditions: 0.06 to 60 μM, gp30 50 pM
Procedure: as §3, with “Densitometric analyses were performed using a SAMBA 4000 system (Dynatech Laboratories).” left out, “Differences were considered significant when effects more than 10% versus controls occurred.” left out
as §4

[9] = tested on: monoclonal antibody 4D5; test: binding of iodinated RL2 to a 4D5 affinity column
Procedure: First, RL2 peptide was iodinated using Iodogen, and purified with high-pressure liquid chromatography (HPLC); the specific activity was 26,000 cpm/μg peptide. […] 3×10^6 cpm of iodinated RL2 were loaded onto a protein A-sepharose column coupled with 4D5 (coupling percentage: 98.5%). Elutions were performed with increasing concentrations of MgCl2 from 1 to 5M (see Table 1). The specific elution marked as * on Table I was obtained at 2M MgCl2. The flow-through contained only background levels of radioactivity.

| IC50 [6] [µM] | radioactivity, flow through ([9]; input 3 × 10^6 cpm iodinated RL2, flow through) | radioactivity, wash ([9]; input 3 × 10^6 cpm iodinated RL2, wash) | Substance | response of MDA-MB-468 cell anchorage-independent growth [1] | effect on binding of iodinated EGF to the EGFR [2] | inhibiting effects on anchorage-independent growth of SK-Br-3 cells in presence of gp30 or p75 [3] | inhibition of MDA-MB-453 cell anchorage-independent growth ([4]; 6-60 μM) [%] | Number of Colonies (± SD) ([4]; 6 μM) | Number of Colonies (± SD) ([4]; 60 μM) | decrease of p185^erbB-2 tyrosine level of phosphorylation, presence of gp30-stimulation ([5]; 60 μM RL2, 50×10^-12 M gp30) [%] | decrease of p185^erbB-2 tyrosine level of phosphorylation, absence of gp30-stimulation ([5]; 60 μM RL2, [32P]-orthophosphate labelling) [%] | inhibition of gp30-stimulated level of EGFR tyrosine phosphorylation ([7]; 60 μM, gp30 50 pM) | inhibition of baseline level of EGFR tyrosine phosphorylation ([7]; 60 μM, no gp30) [%] | effect on EGF-induced tyrosine phosphorylation of EGFR ([7]; EGF 1.68 nM, peptide 0.6, 6 and 60 μM) | inhibition of gp30-stimulated level of p185^erbB-2 tyrosine phosphorylation [8] [%] | binding of iodinated peptide to 4D5-affinity column ([9]; protein A-sepharose column coupled with 4D5) |
| --- | --- | --- | --- | --- | --- | --- | --- | --- | --- | --- | --- | --- | --- | --- | --- | --- |
|  |  |  | EGF: epidermal growth factor, positive control | did respond |  |  |  |  |  |  |  |  |  |  |  |  |
| 8 | 2.6 × 10^5 cpm | 2.54 × 10^5 cpm | LGLRSLRE [RL2] |  | absence of an effect | fully reversed | 72 | 245 ± 46 | 123 ± 21 | 26 | 50 | not the gp30-stimulated level | 71 | no effect | 80 | specifically bind to a 4D5-affinity column |
|  |  |  | p185^erbB-2 ECD: p185^erbB-2 extracellular domain (ECD), positive control |  |  | fully reversed |  |  |  |  |  |  |  |  |  |  |
